Results as given in patent US20160199351A1, “COMPOSITIONS AND METHODS FOR INHIBITING FUNGAL INFECTIONS” (priority 2015, published 2016).
Like-named read-outs stand apart in the source and are kept apart here.

Assays:
C. glabrata = assay: MIC against Candida species (Table 4); settings: for MIC50 / MIC: Nakaseomyces glabratus; for MIC: read-out: MIC 100%
Histoplasma capsulatum = assay: organism not typed; assay type: cell-based
Pneumocystis carinii = assay: In vitro ATP content of Pneumocystis (luciferin-luciferase assay); settings: for IC50: Pneumocystis carinii, read-out: IC50 (reduction in ATP)
Blastomyces dermatitidis [1] = assay: MIC (Table 6); assay type: cell-based; settings: for MIC: read-out: MIC 100%
C. parapsilosis = assay: MIC against Candida species (Table 4)
Pneumocystis murina = assay: In vitro ATP content of Pneumocystis (luciferin-luciferase assay); settings: for IC50: Pneumocystis murina, read-out: IC50 (reduction in ATP)
Apophysomyces = assay: MIC, CLSI M38-A2 broth dilution (Table 1); assay type: cell-based
Trichophyton rubrum = Trichophyton rubrum mycelia growth dose-response (MIC by linear regression); assay type: cell-based; settings: for MIC: Trichophyton rubrum, FIG. 3 dose-response, linear regression
Cryptococcus neoformans = assay: MIC against Cryptococcus neoformans (Table 4); settings: for MIC50 / MIC: Cryptococcus neoformans; for MIC: read-out: MIC 100%
Blastomyces dermatitidis [2] = assay: MIC, macrodilution method (Table 1); assay type: cell-based; settings: 96 hours
Paeceilomyces variotii = assay: MIC, CLSI M38-A2 broth dilution (Table 1); assay type: cell-based; settings: isolate QC
[3] = system: Coccidioides immitis/posadasii; assay type: cell-based

NCC(=O)Nc1ccc(-n2nc(C(F)(F)F)cc2-c2ccc3c(ccc4ccccc43)c2)cc1 [AR-12, 2-amino-N-(4-(5-(phenanthren-2-yl)-3-(trifluoromethyl)-1H-pyrazol-1-yl)phenyl)acetamide]
97.2%: Pm % Reduction in ATP/Vehicle Control (Pneumocystis carinii; Table 2, 100 μg/ml, 48 hours)
15.9 µM: MIC (Histoplasma capsulatum; read-out: MIC, concentration resulting in 90% inhibition of yeast growth)
1.78 µg/mL: IC50 (Pneumocystis murina; 72 h)
0.25 µg/mL: MIC50 (Blastomyces dermatitidis [1]; isolate BD1, 72/192 hrs)
15.48%: Pm % Reduction in ATP/Vehicle Control (Pneumocystis murina; Table 3, 1 μg/ml, 72 hours)
5.76%: Pm % Reduction in ATP/Vehicle Control (Pneumocystis murina; Table 3, 1 μg/ml, 48 hours)
2 gg/m1: MIC 50% (Apophysomyces; isolate A1, 24 hours) | MIC 50% (Apophysomyces; isolate A2, 24 hours) | MIC 50% (Blastomyces dermatitidis [2]; isolate BD1, macrodilution) | MIC 100% (Blastomyces dermatitidis [2]; isolate BD2, macrodilution) | MIC 50% ([3]; isolate Cocci3, 48 hours) | MIC 100% ([3]; isolate Cocci3, 48 hours)
1 µg/mL: MIC50 (Blastomyces dermatitidis [1]; isolate BD3, 72/192 hrs)
8 to 40 µM: concentration that effectively prevents growth (Histoplasma capsulatum; stated for all three fungi) | concentration that effectively prevents growth (Trichophyton rubrum; stated for all three fungi)
3.51%: Pm % Reduction in ATP/Vehicle Control (Pneumocystis murina; Table 3, 1 μg/ml, 24 hours)
83.6%: Pm % Reduction in ATP/Vehicle Control (Pneumocystis murina; Table 3, 100 μg/ml, 24 hours)
97.76%: Pm % Reduction in ATP/Vehicle Control (Pneumocystis murina; Table 3, 100 μg/ml, 48 hours)
98.09%: Pm % Reduction in ATP/Vehicle Control (Pneumocystis murina; Table 3, 100 μg/ml, 72 hours)
94.23%: Pm % Reduction in ATP/Vehicle Control (Pneumocystis murina; Table 3, 10 μg/ml, 72 hours)
9.69 µg/mL: IC50 (Pneumocystis murina; 24 h)
0.49%: Pm % Reduction in ATP/Vehicle Control (Pneumocystis carinii; Table 2, 1 μg/ml, 72 hours)
59.81%: Pm % Reduction in ATP/Vehicle Control (Pneumocystis carinii; Table 2, 10 μg/ml, 72 hours)
85.38%: Pm % Reduction in ATP/Vehicle Control (Pneumocystis murina; Table 3, 10 μg/ml, 48 hours)
0.5 µg/mL: MIC (Blastomyces dermatitidis [1]; isolate BD1, 72/192 hrs)
11.3 µM: MIC (Trichophyton rubrum; read-out: MIC, concentration resulting in 90% inhibition of mycelia growth)
2 µg/mL: MIC50 (C. glabrata; 24 h, isolate CG-7, 24 hrs) | MIC50 (C. glabrata; 24 h, isolate CG-9, 24 hrs) | MIC50 (C. glabrata; 24 h, isolate CG-10, 24 hrs) | MIC50 (Blastomyces dermatitidis [1]; isolate BD2, 72/192 hrs) | MIC (Blastomyces dermatitidis [1]; isolate BD2, 72/192 hrs) | MIC (Blastomyces dermatitidis [1]; isolate BD3, 72/192 hrs) | MIC50 (C. parapsilosis; 24 h, isolate CP-1, 24 hrs) | MIC50 (C. parapsilosis; 24 h, isolate CP-2, 24 hrs) | MIC50 (C. parapsilosis; 24 h, isolate CP-3, 24 hrs) | MIC50 (C. parapsilosis; 24 h, isolate CP-4, 24 hrs) | MIC50 (C. parapsilosis; 24 h, isolate CP-5, 24 hrs) | MIC50 (C. parapsilosis; 24 h, isolate CP-6, 24 hrs) | MIC50 (C. parapsilosis; 24 h, isolate CP-7, 24 hrs) | MIC50 (C. parapsilosis; 24 h, isolate QC) | MIC (C. parapsilosis; 24 h, read-out: MIC 100%, isolate CP-1, 24 hrs) | MIC (C. parapsilosis; 24 h, read-out: MIC 100%, isolate CP-5, 24 hrs) | MIC (C. parapsilosis; 24 h, read-out: MIC 100%, isolate CP-7, 24 hrs) | MIC (C. parapsilosis; 24 h, read-out: MIC 100%, isolate QC, 24 hrs) | MIC50 (C. parapsilosis; 48 h, isolate CP-7, 48 hrs) | MIC50 (C. parapsilosis; 48 h, isolate QC) | MIC50 (Cryptococcus neoformans; 48 h, isolate CN-1, 48 hrs)
4.82 µg/mL: IC50 (Pneumocystis carinii; 72 h)
54.02%: Pm % Reduction in ATP/Vehicle Control (Pneumocystis murina; Table 3, 10 μg/ml, 24 hours)
16.68%: Pm % Reduction in ATP/Vehicle Control (Pneumocystis carinii; Table 2, 10 μg/ml, 48 hours)
18.3 µg/mL: IC50 (Pneumocystis carinii; 48 h)
97.31%: Pm % Reduction in ATP/Vehicle Control (Pneumocystis carinii; Table 2, 100 μg/ml, 24 hours)
2.77 µg/mL: IC50 (Pneumocystis murina; 48 h)
41.3 µg/mL: IC50 (Pneumocystis carinii; 24 h)
>16 gg/m1: MIC 100% (Apophysomyces; isolate A1, 24 hours) | MIC 100% (Apophysomyces; isolate A2, 24 hours)
5.4 µM: MIC (Histoplasma capsulatum; read-out: MIC, concentration resulting in 50% inhibition of yeast growth)
4.5 µM: MIC (Trichophyton rubrum; read-out: MIC, concentration resulting in 50% inhibition of mycelia growth)
0%: Pm % Reduction in ATP/Vehicle Control (Pneumocystis carinii; Table 2, 1 μg/ml, 24 hours) | Pm % Reduction in ATP/Vehicle Control (Pneumocystis carinii; Table 2, 10 μg/ml, 24 hours)
1.76%: Pm % Reduction in ATP/Vehicle Control (Pneumocystis carinii; Table 2, 1 μg/ml, 48 hours)
1 gg/m1: MIC 50% (Blastomyces dermatitidis [2]; isolate BD2, macrodilution) | MIC 50% (Blastomyces dermatitidis [2]; isolate BD3, macrodilution) | MIC 100% (Blastomyces dermatitidis [2]; isolate BD3, macrodilution) | MIC 50% ([3]; isolate Cocci1, 48 hours) | MIC 100% ([3]; isolate Cocci1, 48 hours) | MIC 50% ([3]; isolate Cocci2, 48 hours) | MIC 100% ([3]; isolate Cocci2, 48 hours)
4 gg/m1: MIC 100% (Blastomyces dermatitidis [2]; isolate BD1, macrodilution) | MIC 50% (Paeceilomyces variotii) | MIC 100% (Paeceilomyces variotii)
4 µg/mL: MIC50 (C. glabrata; 24 h, isolate CG-1, 24 hrs) | MIC50 (C. glabrata; 24 h, isolate CG-2, 24 hrs) | MIC50 (C. glabrata; 24 h, isolate CG-3, 24 hrs) | MIC50 (C. glabrata; 24 h, isolate CG-4, 24 hrs) | MIC50 (C. glabrata; 24 h, isolate CG-5, 24 hrs) | MIC50 (C. glabrata; 24 h, isolate CG-6, 24 hrs) | MIC50 (C. glabrata; 24 h, isolate CG-8, 24 hrs) | MIC (C. glabrata; 24 h) | MIC50 (C. glabrata; 48 h, isolate CG-1, 48 hrs) | MIC50 (C. glabrata; 48 h, isolate CG-2, 48 hrs) | MIC50 (C. glabrata; 48 h, isolate CG-3, 48 hrs) | MIC50 (C. glabrata; 48 h, isolate CG-4, 48 hrs) | MIC50 (C. glabrata; 48 h, isolate CG-5, 48 hrs) | MIC50 (C. glabrata; 48 h, isolate CG-6, 48 hrs) | MIC50 (C. glabrata; 48 h, isolate CG-7, 48 hrs) | MIC50 (C. glabrata; 48 h, isolate CG-8, 48 hrs) | MIC50 (C. glabrata; 48 h, isolate CG-9, 48 hrs) | MIC50 (C. glabrata; 48 h, isolate CG-10, 48 hrs) | MIC (C. glabrata; 48 h) | MIC 100% (C. glabrata; isolate CG-1, 24 hrs) | MIC 100% (C. glabrata; isolate CG-1, 48 hrs) | MIC 100% (C. glabrata; isolate CG-2, 24 hrs) | MIC 100% (C. glabrata; isolate CG-2, 48 hrs) | MIC 100% (C. glabrata; isolate CG-4, 24 hrs) | MIC 100% (C. glabrata; isolate CG-4, 48 hrs) | MIC 100% (C. glabrata; isolate CG-5, 24 hrs) | MIC 100% (C. glabrata; isolate CG-5, 48 hrs) | MIC 100% (C. glabrata; isolate CG-6, 24 hrs) | MIC 100% (C. glabrata; isolate CG-6, 48 hrs) | MIC 100% (C. glabrata; isolate CG-7, 24 hrs) | MIC 100% (C. glabrata; isolate CG-7, 48 hrs) | MIC 100% (C. glabrata; isolate CG-8, 24 hrs) | MIC 100% (C. glabrata; isolate CG-8, 48 hrs) | MIC 100% (C. glabrata; isolate CG-9, 24 hrs) | MIC 100% (C. glabrata; isolate CG-9, 48 hrs) | MIC 100% (C. glabrata; isolate CG-10, 24 hrs) | MIC 100% (C. glabrata; isolate CG-10, 48 hrs) | MIC (C. parapsilosis; 24 h, read-out: MIC 100%, isolate CP-2, 24 hrs) | MIC (C. parapsilosis; 24 h, read-out: MIC 100%, isolate CP-3, 24 hrs) | MIC (C. parapsilosis; 24 h, read-out: MIC 100%, isolate CP-4, 24 hrs) | MIC (C. parapsilosis; 24 h, read-out: MIC 100%, isolate CP-6, 24 hrs) | MIC50 (C. parapsilosis; 48 h, isolate CP-1, 48 hrs) | MIC50 (C. parapsilosis; 48 h, isolate CP-2, 48 hrs) | MIC50 (C. parapsilosis; 48 h, isolate CP-3, 48 hrs) | MIC50 (C. parapsilosis; 48 h, isolate CP-4, 48 hrs) | MIC50 (C. parapsilosis; 48 h, isolate CP-5, 48 hrs) | MIC50 (C. parapsilosis; 48 h, isolate CP-6, 48 hrs) | MIC (C. parapsilosis; 48 h, read-out: MIC 100%, isolate CP-1, 48 hrs) | MIC (C. parapsilosis; 48 h, read-out: MIC 100%, isolate CP-2, 48 hrs) | MIC (C. parapsilosis; 48 h, read-out: MIC 100%, isolate CP-3, 48 hrs) | MIC (C. parapsilosis; 48 h, read-out: MIC 100%, isolate CP-4, 48 hrs) | MIC (C. parapsilosis; 48 h, read-out: MIC 100%, isolate CP-5, 48 hrs) | MIC (C. parapsilosis; 48 h, read-out: MIC 100%, isolate CP-6, 48 hrs) | MIC (C. parapsilosis; 48 h, read-out: MIC 100%, isolate CP-7, 48 hrs) | MIC (C. parapsilosis; 48 h, read-out: MIC 100%, isolate QC, 48 hrs) | MIC50 (Cryptococcus neoformans; 48 h, isolate CN-2, 48 hrs) | MIC50 (Cryptococcus neoformans; 48 h, isolate CN-3, 48 hrs) | MIC (Cryptococcus neoformans; 48 h) | MIC50 (Cryptococcus neoformans; 72 h, isolate CN-1, 72 hrs) | MIC50 (Cryptococcus neoformans; 72 h, isolate CN-2, 72 hrs) | MIC50 (Cryptococcus neoformans; 72 h, isolate CN-3, 72 hrs) | MIC (Cryptococcus neoformans; 72 h) | MIC 100% (Cryptococcus neoformans; isolate CN-2, 48 hrs) | MIC 100% (Cryptococcus neoformans; isolate CN-2, 72 hrs) | MIC 100% (Cryptococcus neoformans; isolate CN-3, 48 hrs) | MIC 100% (Cryptococcus neoformans; isolate CN-3, 72 hrs)
99.04%: Pm % Reduction in ATP/Vehicle Control (Pneumocystis carinii; Table 2, 100 μg/ml, 72 hours)
